In patent publication US20200079793A1, “COMPOUNDS AND METHODS FOR MODULATING ADENOSINE A2B RECEPTOR AND ADENOSINE A2A RECEPTOR” (CORVUS PHARMACEUTICALS, INC., priority 2018, published 2020):

Assays:
Adenosine A2B Receptor = biological target: T1, Adenosine A2B Receptor (Homo sapiens, UniProt P29275); test: Activity assay of adenosine receptor modulators, Adenosine A2B Receptor (Table 1); assay type: biochemical; conditions: cAMP; read-out: A2BR cAMP IC50
T1 sequence (P29275 1-332): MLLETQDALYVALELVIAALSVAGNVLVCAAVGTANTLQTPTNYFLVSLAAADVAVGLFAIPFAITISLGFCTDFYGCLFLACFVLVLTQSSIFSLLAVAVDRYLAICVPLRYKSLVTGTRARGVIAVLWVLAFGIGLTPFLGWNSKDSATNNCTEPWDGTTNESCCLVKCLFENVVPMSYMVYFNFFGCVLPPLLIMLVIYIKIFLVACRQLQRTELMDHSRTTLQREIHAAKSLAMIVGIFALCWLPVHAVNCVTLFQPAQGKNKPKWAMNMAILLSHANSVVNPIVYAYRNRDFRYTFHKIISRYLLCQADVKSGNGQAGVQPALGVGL
Procedure: (§1) Compounds (e.g., adenosine receptor modulators) were tested for its biological activity. The assay results in Table 1 indicate (+ means >1 μM; ++ means 100 nM to 1 μM; +++ means <100 nM).

Adenosine A2A Receptor = Adenosine A2A Receptor (Homo sapiens, UniProt P29274); test: Activity assay of adenosine receptor modulators, Adenosine A2A Receptor (Table 1); assay type: biochemical; conditions: cAMP; read-out: A2AR cAMP IC50
Chain of Adenosine A2A Receptor (P29274 whole entry): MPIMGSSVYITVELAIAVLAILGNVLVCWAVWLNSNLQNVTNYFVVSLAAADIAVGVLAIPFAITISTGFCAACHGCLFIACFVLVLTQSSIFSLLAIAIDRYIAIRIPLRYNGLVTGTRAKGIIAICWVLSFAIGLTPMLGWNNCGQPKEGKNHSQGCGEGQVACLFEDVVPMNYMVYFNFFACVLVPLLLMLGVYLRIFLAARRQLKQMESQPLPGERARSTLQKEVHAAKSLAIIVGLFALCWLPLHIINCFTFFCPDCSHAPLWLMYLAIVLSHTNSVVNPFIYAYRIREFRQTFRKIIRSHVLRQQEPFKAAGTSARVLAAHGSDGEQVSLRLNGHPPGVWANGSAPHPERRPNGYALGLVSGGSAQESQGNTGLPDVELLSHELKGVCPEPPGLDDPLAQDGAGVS
Procedure: as §1

A1R = biological target: T2, A1R (Homo sapiens, UniProt P30542); test: Activity assay of adenosine receptor modulators, A1R cAMP (Table 1); assay type: cell-based
T2 sequence (P30542 1-326): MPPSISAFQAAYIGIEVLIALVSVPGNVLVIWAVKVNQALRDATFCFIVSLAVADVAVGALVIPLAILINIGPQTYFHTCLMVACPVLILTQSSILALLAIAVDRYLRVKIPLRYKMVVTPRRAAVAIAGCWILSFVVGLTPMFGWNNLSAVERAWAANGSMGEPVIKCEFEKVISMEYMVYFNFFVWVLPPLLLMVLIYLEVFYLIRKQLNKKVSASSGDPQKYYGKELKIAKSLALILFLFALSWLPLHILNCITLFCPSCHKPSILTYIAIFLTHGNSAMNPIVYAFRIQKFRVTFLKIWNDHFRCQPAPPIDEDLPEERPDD
Procedure: as §1

A3R = biological target: T3, A3R (Homo sapiens, UniProt P0DMS8); test: Activity assay of adenosine receptor modulators, A3R cAMP (Table 1); assay type: cell-based
T3 sequence (P0DMS8 1-318): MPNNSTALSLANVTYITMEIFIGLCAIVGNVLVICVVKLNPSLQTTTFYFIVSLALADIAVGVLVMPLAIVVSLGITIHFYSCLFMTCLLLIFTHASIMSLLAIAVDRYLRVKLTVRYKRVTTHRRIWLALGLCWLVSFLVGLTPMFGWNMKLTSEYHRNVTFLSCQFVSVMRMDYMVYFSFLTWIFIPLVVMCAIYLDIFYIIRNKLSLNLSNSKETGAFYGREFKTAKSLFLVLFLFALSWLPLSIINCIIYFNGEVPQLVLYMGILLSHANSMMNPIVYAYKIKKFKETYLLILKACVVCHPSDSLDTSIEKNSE
Procedure: as §1

Work on `Cc1nc2nc(N[C@@H](C)c3cccnc3)nc(C(=O)N3CC(NC(=O)C4CCCCC4)C3)c2s1` [Example 81, N-[1-[2-Methyl-5-[[(S)-1-(3-pyridyl)ethyl]amino]thiazolo[4,5-d]pyrimidine-7-carbonyl]azetidin-3-yl]cyclohexanecarboxamide] yielded an IC50 (Adenosine A2B Receptor) of under 0.1 µM, an IC50 (Adenosine A2A Receptor) of under 0.1 µM and an IC50 (A1R) of over 1 µM. The IC50 (A3R) was 0.1 to 1 µM.

`COc1cccc(C(=O)NC2CN(C(=O)c3nc(N[C@@H](C)c4cncc(F)c4)nc4nc(C)sc34)C2)c1` [Example 71, (S)—N-(1-(5-((1-(5-Fluoropyridin-3-yl)ethyl)amino)-2-methylthiazolo[4,5-d]pyrimidine-7-carbonyl)azetidin-3-yl)-3-methoxybenzamide] showed an IC50 (Adenosine A2B Receptor) of under 0.1 µM, an IC50 (Adenosine A2A Receptor) of under 0.1 µM and an IC50 (A1R) of over 1 µM. The IC50 (A3R) was 0.1 to 1 µM.

In the case of `Cc1nc2nc(N[C@@H](C)c3cncc(F)c3)nc(C(=O)N3CC(NC(=O)C4(C(F)(F)F)CC4)C3)c2s1` [Example 70, (S)—N-(1-(5-((1-(5-Fluoropyridin-3-yl)ethyl)amino)-2-methylthiazolo[4,5-d]pyrimidine-7-carbonyl)azetidin-3-yl)-1-(trifluoromethyl)cyclopropane-1-carboxamide], the IC50 (Adenosine A2B Receptor) is reported as under 0.1 µM, the IC50 (Adenosine A2A Receptor) is reported as under 0.1 µM and the IC50 (A1R) is reported as over 1 µM. It also gave an IC50 (A3R) of 0.1 to 1 µM.

For `Cc1nc2nc(N[C@@H](C)c3cncc(F)c3)nc(C(=O)NC[C@H](C)O)c2s1` [Example 5, 5-(((S)-1-(5-Fluoropyridin-3-yl)ethyl)amino)-N—((S)-2-hydroxypropyl)-2-methylthiazolo[4,5-d]pyrimidine-7-carboxamide], the IC50 (Adenosine A2B Receptor) was under 0.1 µM, the IC50 (Adenosine A2A Receptor) was over 1 µM and the IC50 (A1R) was 0.1 to 1 µM. It also gave an IC50 (A3R) of 0.1 to 1 µM.

For `Cc1nc2nc(N[C@@H](C)c3cccnc3)nc(C(=O)N3CC(NC(=O)C4CCOCC4)C3)c2s1` [Example 82, N-[1-[2-Methyl-5-[[(S)-1-(3-pyridyl)ethyl]amino]thiazolo[4,5-d]pyrimidine-7-carbonyl]azetidin-3-yl]tetrahydropyran-4-carboxamide], the IC50 (Adenosine A2B Receptor) was 0.1 to 1 µM, the IC50 (Adenosine A2A Receptor) was under 0.1 µM and the IC50 (A1R) was over 1 µM. For the same molecule, the IC50 (A3R) was over 1 µM.

`Cc1nc2nc(N[C@@H](C)c3cncc(F)c3)nc(C(=O)N3CC(NC(=O)C4CCOCC4)C3)c2s1` [Example 68, (S)—N-(1-(5-((1-(5-Fluoropyridin-3-yl)ethyl)amino)-2-methylthiazolo[4,5-d]pyrimidine-7-carbonyl)azetidin-3-yl)tetrahydro-2H-pyran-4-carboxamide] showed an IC50 (Adenosine A2B Receptor) of 0.1 to 1 µM, an IC50 (Adenosine A2A Receptor) of under 0.1 µM and an IC50 (A1R) of over 1 µM. It also gave an IC50 (A3R) of 0.1 to 1 µM.

For `CO[C@@H]1CCN(C(=O)c2nc(N[C@@H](C)c3cncc(F)c3)nc3nc(C)sc23)C1` [Example 40, (5-(((S)-1-(5-Fluoropyridin-3-yl)ethyl)amino)-2-methylthiazolo[4,5-d]pyrimidin-7-yl)((R)-3-methoxypyrrolidin-1-yl)methanone], the IC50 (Adenosine A2B Receptor) was under 0.1 µM, the IC50 (Adenosine A2A Receptor) was 0.1 to 1 µM and the IC50 (A1R) was over 1 µM. The IC50 (A3R) was over 1 µM.

Molecule `Cc1nc2nc(N[C@@H](C)c3cncc(F)c3)nc(C(=O)N3CC(NC(=O)C(C)(C)C)C3)c2s1` [Example 37, (S)—N-(1-(5-((1-(5-Fluoropyridin-3-yl)ethyl)amino)-2-methylthiazolo[4,5-d]pyrimidine-7-carbonyl)azetidin-3-yl)pivalamide] has an IC50 (Adenosine A2B Receptor) of under 0.1 µM, an IC50 (Adenosine A2A Receptor) of under 0.1 µM and an IC50 (A1R) of over 1 µM. For the same molecule, the IC50 (A3R) was under 0.1 µM.

`Cc1nc2nc(N[C@@H](C)c3cncc(F)c3)nc(C(=O)NCCc3ccc(S(N)(=O)=O)cc3)c2s1` [Example 31, (S)-5-((1-(5-Fluoropyridin-3-yl)ethyl)amino)-2-methyl-N-(4-sulfamoylphenethyl)thiazolo[4,5-d]pyrimidine-7-carboxamide] gave an IC50 (Adenosine A2B Receptor) of under 0.1 µM, an IC50 (Adenosine A2A Receptor) of over 1 µM and an IC50 (A1R) of over 1 µM. For the same molecule, the IC50 (A3R) was over 1 µM.

For `Cc1nc2nc(N[C@@H](C)c3ccccn3)nc(C(=O)N3CCCC3)c2s1` [Example 9, (S)-(2-Methyl-5-((1-(pyridin-2-yl)ethyl)amino)thiazolo[4,5-d]pyrimidin-7-yl)(pyrrolidin-1-yl)methanone], the IC50 (Adenosine A2B Receptor) was under 0.1 µM, the IC50 (Adenosine A2A Receptor) was 0.1 to 1 µM and the IC50 (A1R) was over 1 µM. It also gave an IC50 (A3R) of 0.1 to 1 µM.

Work on `Cc1nc2nc(N[C@@H](C)c3cccnc3)nc(C(=O)N3CC(NC(=O)NC4CCCC4)C3)c2s1` [Example 79, 1-Cyclopentyl-3-[1-[2-methyl-5-[[(S)-1-(3-pyridyl)ethyl]amino]thiazolo[4,5-d]pyrimidine-7-carbonyl]azetidin-3-yl]urea] yielded an IC50 (Adenosine A2B Receptor) of under 0.1 µM, an IC50 (Adenosine A2A Receptor) of under 0.1 µM and an IC50 (A1R) of over 1 µM. For the same molecule, the IC50 (A3R) was 0.1 to 1 µM.

`Cc1nc2nc(N[C@@H](C)c3cncc(F)c3)nc(C(=O)N3CCC3)c2s1` [Example 2, (S)-Azetidin-1-yl(5-((1-(5-fluoropyridin-3-yl)ethyl)amino)-2-methylthiazolo[4,5-d]pyrimidin-7-yl)methanone] gave an IC50 (Adenosine A2B Receptor) of under 0.1 µM, an IC50 (Adenosine A2A Receptor) of 0.1 to 1 µM and an IC50 (A1R) of over 1 µM. For the same molecule, the IC50 (A3R) was 0.1 to 1 µM.

`COCC1CN(C(=O)c2nc(N[C@@H](C)c3cncc(F)c3)nc3nc(C)sc23)C1` [Example 51, (S)-(5-((1-(5-Fluoropyridin-3-yl)ethyl)amino)-2-methylthiazolo[4,5-d]pyrimidin-7-yl)(3-(methoxymethyl)azetidin-1-yl)methanone] was tested, and the IC50 (Adenosine A2B Receptor) was under 0.1 µM, the IC50 (Adenosine A2A Receptor) was 0.1 to 1 µM and the IC50 (A1R) was over 1 µM. The IC50 (A3R) was over 1 µM.

For `Cc1nc2nc(N[C@@H](C)c3cncc(F)c3)nc(C(=O)N3CC(C(N)=O)C3)c2s1` [Example 33, (S)-1-(5-((1-(5-Fluoropyridin-3-yl)ethyl)amino)-2-methylthiazolo[4,5-d]pyrimidine-7-carbonyl)azetidine-3-carboxamide], the IC50 (Adenosine A2B Receptor) was under 0.1 µM, the IC50 (Adenosine A2A Receptor) was over 1 µM and the IC50 (A1R) was over 1 µM. It also gave an IC50 (A3R) of over 1 µM.

With `Cc1nc2nc(N[C@@H](C)c3cccnc3)nc(C(=O)NC[C@@H](C)O)c2s1` [Example 12, N—((R)-2-Hydroxypropyl)-2-methyl-5-(((S)-1-(pyridin-3-yl)ethyl)amino)thiazolo[4,5-d]pyrimidine-7-carboxamide] the IC50 (Adenosine A2B Receptor) was under 0.1 µM, the IC50 (Adenosine A2A Receptor) was over 1 µM and the IC50 (A1R) was over 1 µM. For the same molecule, the IC50 (A3R) was over 1 µM.

`Cc1nc2nc(N[C@@H](C)c3cncc(F)c3)nc(C(=O)N3CC[C@H](CO)C3)c2s1` [Example 50, (5-(((S)-1-(5-Fluoropyridin-3-yl)ethyl)amino)-2-methylthiazolo[4,5-d]pyrimidin-7-yl)((S)-3-(hydroxymethyl)pyrrolidin-1-yl)methanone] showed an IC50 (Adenosine A2B Receptor) of under 0.1 µM, an IC50 (Adenosine A2A Receptor) of 0.1 to 1 µM and an IC50 (A1R) of over 1 µM. The IC50 (A3R) was over 1 µM.

`Cc1nc2nc(N[C@@H](C)c3cncc(F)c3)nc(C(=O)N3CC(NC(=O)C45CCC(CC4)CC5)C3)c2s1` [Example 67, (S)—N-(1-(5-((1-(5-Fluoropyridin-3-yl)ethyl)amino)-2-methylthiazolo[4,5-d]pyrimidine-7-carbonyl)azetidin-3-yl)bicyclo[2.2.2]octane-1-carboxamide] showed an IC50 (Adenosine A2B Receptor) of under 0.1 µM, an IC50 (Adenosine A2A Receptor) of under 0.1 µM and an IC50 (A1R) of over 1 µM. It also gave an IC50 (A3R) of under 0.1 µM.

Molecule `Cc1nc2nc(N[C@@H](C)c3ccccn3)nc(C(=O)N3CC[C@H](O)C3)c2s1` [Example 17, ((S)-3-Hydroxypyrrolidin-1-yl)(2-methyl-5-(((S)-1-(pyridin-2-yl)ethyl)amino)thiazolo[4,5-d]pyrimidin-7-yl)methanone] has an IC50 (Adenosine A2B Receptor) of under 0.1 µM, an IC50 (Adenosine A2A Receptor) of over 1 µM and an IC50 (A1R) of over 1 µM. The IC50 (A3R) was over 1 µM.

In the case of `Cc1nc2nc(N[C@@H](C)c3cncc(F)c3)nc(C(=O)NCCc3ccc(O)cc3)c2s1` [Example 21, (S)-5-((1-(5-Fluoropyridin-3-yl)ethyl)amino)-N-(4-hydroxyphenethyl)-2-methylthiazolo[4,5-d]pyrimidine-7-carboxamide], the IC50 (Adenosine A2B Receptor) is reported as under 0.1 µM, the IC50 (Adenosine A2A Receptor) is reported as over 1 µM and the IC50 (A1R) is reported as over 1 µM. The IC50 (A3R) was over 1 µM.

Molecule `COC[C@H]1CCN(C(=O)c2nc(N[C@@H](C)c3cncc(F)c3)nc3nc(C)sc23)C1` [Example 48, (5-(((S)-1-(5-Fluoropyridin-3-yl)ethyl)amino)-2-methylthiazolo[4,5-d]pyrimidin-7-yl)((S)-3-(methoxymethyl)pyrrolidin-1-yl)methanone] has an IC50 (Adenosine A2B Receptor) of under 0.1 µM, an IC50 (Adenosine A2A Receptor) of 0.1 to 1 µM and an IC50 (A1R) of over 1 µM. The IC50 (A3R) was over 1 µM.
